In the assay the test system is PCA (Passive Cutaneous Anaphylaxis) reaction. Kind of assay: Inhibitory effect on PCA (Passive Cutaneous Anaphylaxis) reaction. The class given is in vivo, male SD (Spraque-Dawley) strain rats. Conditions: rat, 1 mg/kg intravenously, 5 minutes before the challenge with antigen; percent inhibition of dye spot size vs control. As to the method:
A solution of egg albumin (2 mg) in B. pertussisdiphtheria-tetanus mixed vaccine (1 ml) was mixed with Freund incomplete adjuvant (1 ml) to give an emulsion. The emulsion was given subcutaneously in a single dose of 1 ml divided equally (0.25 ml) to the four foot pads of male SD (Spraque-Dawley) strain rats aged 8 weeks, each weighing about 300 g.
8 days after the immunization, blood samples were collected from femoral artery of the rats and allowed to stand under ice-cooling for 5 hours. The separated supernatant was centrifuged at 4° C. (10,000 r.p.m.×1 hour). The antisera thus obtained were stored at -80° C. prior to use.
Male SD-strain rats aged 8 weeks, weighing 250 to 300 g, were used for PCA reaction with the homologous reaginic antiserum as prepared above. Each 0.1 ml of 32 fold diluted antiserum were injected intradermally at separate sites on the back of rats clipped free of hair, and 48 hours later, 1 ml of aqueous solution containing each 5 mg of the egg albumin and Evans blue was injected intravenously to evoke PCA reaction. Test compound was given to the animals intravenously 5 minutes before the challenge with antigen. Control group received vehicle. Each dose group consisted of 4 animals. […] The results were expressed by percent inhibition values calculated from averaged values of the longest and shortest diameters for each spot in comparison with those in control group. […]

Regarding “N-(1H-tetrazol-5-yl)-10-(2,3-dimethylpentanoylamino)-7-methyl-4-oxo-4H-pyrimido[2,1-a]isoquinoline-3-carboxamide [Example 11]”, the Inhibitory effect is 100%.

For the origin of these results see US4673676A, “Pyrimidoisoquinoline derivatives useful for treating allergies” (Fujisawa Pharmaceutical Co., Ltd., priority 1983, dated 1987).
